In test [1] the test system is Burkholderia cepacia ATCC 25416. The test can be described thus: MIC determination by microbroth dilution. Particulars: ATCC25416, read-out: MIC B. cepcia. The format is cell-based. Background: Broth dilution looks for growth in wells or tubes with falling amounts of substance.
For another test, the system named is E. coli K12 ΔtolC. The test is described as follows: microbe, parasite or virus in culture. Particulars: Escherichia coli, read-out: MIC E. coli K12 ΔtolC. The format is cell-based.
In test [2] the test system is Strep. pyogenes ATCC 700294. The test is described as follows: MIC determination by microbroth dilution. The format is cell-based, Streptococcus pyogenes. Particulars: Streptococcus pyogenes, ATCC700294, read-out: MIC S. pyogenes.
The next test deals with B. anthracis Sterne 34F2. The test can be described thus: microbe, parasite or virus in culture. The format is cell-based, Bacillus anthracis. As to conditions: Bacillus anthracis, STERNE34F2, read-out: MIC B. anthracis 34F2.
Test [3] has as its system Strep. pneumoniae DAW27 or strain R6. The test can be described thus: MIC determination by microbroth dilution. The format is cell-based, Streptococcus pneumoniae. As to conditions: Streptococcus pneumoniae; Strep. pneumoniae DAW27 or strain R6 (for 1443-1544); read-out: MIC S. pneumoniae.
Test [4] relates to Proteus vulgaris ATCC 33420. The test can be described thus: MIC determination by microbroth dilution. The format is cell-based. As to conditions: ATCC33420.
Test [5] relates to S. aureus 8325 or strain ATCC 29213. The test is described as follows: MIC determination by microbroth dilution. The format is cell-based, Staphylococcus aureus. Particulars: Staphylococcus aureus, ATCC29213; S. aureus 8325 or strain ATCC 29213 (for 1471-1544).
Test [6] has as its system Acinetobacter baumannii ATCC 19606. The test can be described thus: MIC determination by microbroth dilution. The format is cell-based. As to conditions: ATCC19606.
Test [7] concerns Strenotrophomonas maltophilia ATCC 13637. The test is described as follows: MIC determination by microbroth dilution. The format is cell-based.
The test system of test [8] is Klebsiella pneumoniae ATCC 33495. The test can be described thus: MIC determination by microbroth dilution. The format is cell-based. Particulars: ATCC33495.
Test [9] relates to Proteus mirabilis ATCC 25933. The test is described as follows: MIC determination by microbroth dilution. The format is cell-based. Particulars: ATCC25933.
A further test deals with M. tuberculosis H37Rv. The test is described as follows: MIC determination by microbroth dilution, anti-tuberculosis activity. Particulars: Mycobacterium tuberculosis, H37RV, 168 h; read-out: MIC. The format is cell-based, Mycobacterium tuberculosis.
The subject of the next test is E. coli K12. The test is described as follows: MIC determination by microbroth dilution. The format is cell-based, Escherichia coli. As to conditions: Escherichia coli, K12.
In the next test the test system is E. faecalis ATCC 33186. The test is described as follows: MIC determination by microbroth dilution. The format is cell-based, Enterococcus faecalis. As to conditions: Enterococcus faecalis, ATCC33186.
The next test concerns P. aeruginosa PAO1. The test can be described thus: MIC determination by microbroth dilution. The format is cell-based, Pseudomonas aeruginosa. As to conditions: Pseudomonas aeruginosa.

Counter-ions that a name gives are not always drawn. Bounds are passed on as bounds.

On to `CN[C@@H]1[C@H](O)[C@H](NC)C2O[C@]3(O)C(OC2[C@H]1O)O[C@H](C)C[C@H]3NC(=O)[C@@H](O)CCN` (stereo partly drawn) [Compound 1493, 3′-Dihydro-3′-deoxy-4(R)-(2(S)-4-amino-2-hydroxy)butanoylamino spectinomycin trihydrochloride], for which the MIC in [1] is more than 200 µg/mL; in the test with E. coli K12 ΔtolC, 25 µg/mL; in [2], 50 µg/mL; with B. anthracis Sterne 34F2 it was more than 200 µg/mL; in test [3], 50 µg/mL; in [4], 100 µg/mL. Also, the MIC (in test [5]; in test [6]; in [7]; in [8]; in [9]; with M. tuberculosis H37Rv) was more than 200 µg/mL throughout. Also, the figures for the MIC against E. coli K12, in the test with E. faecalis ATCC 33186 and in the test on P. aeruginosa PAO1 were 100 µg/mL, more than 200 µg/mL and more than 200 µg/mL, respectively.

With `CN[C@@H]1[C@H](O)[C@H](NC)C2O[C@]3(O)C(OC2[C@H]1O)O[C@H](C)C[C@H]3NC(=O)Cc1csc(Nc2ccc(OC(F)(F)F)cc2)n1` (stereo partly drawn) [Compound 1540, 3′-Dihydro-3′-deoxy-4(R)-(2-((4-(trifluoromethoxy)phenyl)amino)-thiazol-4-yl)acetylamino spectinomycin tribromide], the MIC in test [1] was more than 200 µg/mL; in the test with E. coli K12 ΔtolC it was 12.5 µg/mL; in test [2], 6.25 µg/mL; in the test on B. anthracis Sterne 34F2, more than 200 µg/mL; in [3], 6.25 µg/mL; in test [4] it was more than 200 µg/mL. For the same compound, the MIC in test [5] is 100 µg/mL; in test [6], more than 200 µg/mL; in test [7], 200 µg/mL; in [8], more than 200 µg/mL; in [9], more than 200 µg/mL; in the test with M. tuberculosis H37Rv, 6.25 µg/mL. In addition, the MIC is more than 200 µg/mL in the test with E. coli K12, 25 µg/mL in the test with E. faecalis ATCC 33186 and 25 µg/mL against P. aeruginosa PAO1.

As for `CN[C@@H]1[C@H](O)[C@H](NC)C2O[C@]3(O)C(OC2[C@@H]1O)O[C@H](C)C[C@H]3NC(=O)Cc1nc2ccccc2s1` (stereo partly drawn) [Compound 1491, 3′-Dihydro-3′-deoxy-4(R)-(benzothiazol-2-yl)acetylamino spectinomycin trihydrobromide], the MIC was more than 200 µg/mL in [1]; 12.5 µg/mL with E. coli K12 ΔtolC; 12.5 µg/mL in [2]; more than 200 µg/mL in the test with B. anthracis Sterne 34F2; 6.25 µg/mL in test [3]; more than 200 µg/mL in [4]. In addition, the MIC in test [5] is 100 µg/mL; in test [6], more than 200 µg/mL; in [7], more than 200 µg/mL; in test [8], more than 200 µg/mL; in [9] it was more than 200 µg/mL; in the test on M. tuberculosis H37Rv, 1.6 µg/mL. Moreover, the MIC in the test with E. coli K12 is 200 µg/mL; in the test with E. faecalis ATCC 33186, 25 µg/mL; with P. aeruginosa PAO1 it was more than 200 µg/mL.

As to `CN[C@@H]1[C@H](O)[C@H](NC)C2O[C@]3(O)C(OC2[C@H]1O)O[C@H](C)C[C@H]3NC(=O)C[C@@H](N)c1ccc(F)cc1` (stereo partly drawn) [Compound 1487, 3′-Dihydro-3′-deoxy-4(R)-[3(R)-amino,3-(4-fluorophenyl)]propanoylamino spectinomycin Trihydrochloride], the MIC is more than 200 µg/mL in [1]; 200 µg/mL in the test on E. coli K12 ΔtolC; 50 µg/mL in test [2]; more than 200 µg/mL with B. anthracis Sterne 34F2; 12.5 µg/mL in [3]; more than 200 µg/mL in [4]. Also, the MIC in test [5] is more than 200 µg/mL; in test [6] it was more than 200 µg/mL; in test [7] it was more than 200 µg/mL; in test [8], more than 200 µg/mL; in test [9], more than 200 µg/mL; with M. tuberculosis H37Rv, 200 µg/mL. Moreover, the MIC is 200 µg/mL against E. coli K12, more than 200 µg/mL against E. faecalis ATCC 33186 and more than 200 µg/mL against P. aeruginosa PAO1.

On to `CN[C@@H]1[C@H](O)[C@H](NC)C2O[C@]3(O)C(OC2[C@H]1O)O[C@H](C)C[C@H]3NC(=O)Cc1csc(Nc2cccc(F)c2)n1` (stereo partly drawn) [Compound 1539, 3′-Dihydro-3′-deoxy-4(R)-(2-((3-fluorophenyl)amino)thiazol-4-yl)acetylamino spectinomycin tribromide], for which the MIC in [1] is more than 200 µg/mL; in the test with E. coli K12 ΔtolC, 12.5 µg/mL; in [2], 3.1 µg/mL; in the test with B. anthracis Sterne 34F2, more than 200 µg/mL; in test [3], 3.1 µg/mL; in [4], more than 200 µg/mL. Besides, the MIC in test [5] is 100 µg/mL; in test [6] it was more than 200 µg/mL; in [7], more than 200 µg/mL; in test [8], more than 200 µg/mL; in test [9], more than 200 µg/mL; in the test with M. tuberculosis H37Rv, 6.25 µg/mL. Besides, the MIC is more than 200 µg/mL in the test with E. coli K12, 25 µg/mL against E. faecalis ATCC 33186 and more than 200 µg/mL in the test with P. aeruginosa PAO1.

`CN[C@@H]1[C@H](O)[C@H](NC)C2O[C@]3(O)C(OC2[C@H]1O)O[C@H](C)C[C@H]3NC(=O)c1cccc2cccnc12` (stereo partly drawn) [Compound 1536, 3′-Dihydro-3′-deoxy-4(R)-(quinoline-8-yl)carbonylamino spec-tinomycin trihydrobromide]: the MIC in [1] is more than 200 µg/mL; with E. coli K12 ΔtolC, more than 200 µg/mL; in [2] it was more than 200 µg/mL; in the test with B. anthracis Sterne 34F2, more than 200 µg/mL; in test [3] it was 200 µg/mL; in [4], more than 200 µg/mL. The MIC (in [5]; in test [6]; in [7]; in [8]; in test [9]; in the test on M. tuberculosis H37Rv) was more than 200 µg/mL throughout. The MIC with E. coli K12, with E. faecalis ATCC 33186 and in the test on P. aeruginosa PAO1 was more than 200 µg/mL in each case.

For `CN[C@@H]1[C@H](O)[C@H](NC)C2O[C@]3(O)C(OC2[C@H]1O)O[C@H](C)C[C@H]3NC(=O)CCNC(=O)c1ccccc1` (stereo partly drawn) [Compound 1503, 3′-Dihydro-3′-deoxy-4(R)-3-benzamido propanoylamino spectino-mycin Dihydrochloride], the MIC (in test [1]; in the test on E. coli K12 ΔtolC; in test [2]; in the test with B. anthracis Sterne 34F2; in test [3]; in test [4]) was more than 200 µg/mL each time. In addition, the MIC (in [5]; in test [6]; in test [7]; in test [8]; in [9]; with M. tuberculosis H37Rv) was more than 200 µg/mL throughout. For the same compound, the MIC in the test with E. coli K12, with E. faecalis ATCC 33186 and with P. aeruginosa PAO1 was more than 200 µg/mL each time.

Consider `CN[C@@H]1[C@H](O)[C@H](NC)C2O[C@]3(O)C(OC2[C@H]1O)O[C@H](C)C[C@H]3NC(=O)[C@H](C)N` (stereo partly drawn) [Compound 1467, 3′-Dihydro-3′-deoxy-4(R)-[2(S)-amino]propanoylamino spectinomycin Trihydrochloride], for which the MIC is more than 200 µg/mL in test [1]; 200 µg/mL in the test on E. coli K12 ΔtolC; 50 µg/mL in [2]; more than 200 µg/mL in the test on B. anthracis Sterne 34F2; 50 µg/mL in test [3]; more than 200 µg/mL in [4]. Also, the MIC in test [5] was more than 200 µg/mL; in test [6], more than 200 µg/mL; in test [7], 100 µg/mL; in test [8] it was more than 200 µg/mL; in [9], 200 µg/mL; with M. tuberculosis H37Rv, 200 µg/mL. The MIC in the test with E. coli K12 is 200 µg/mL; against E. faecalis ATCC 33186, more than 200 µg/mL; against P. aeruginosa PAO1, more than 200 µg/mL.

The values above are taken from US9284325B2, “Spectinamides as anti-tuberculosis agents” (UNIVERSITY OF TENNESSEE RESEARCH FOUNDATION, priority 2009, dated 2016).
